Data as given in ChEMBL document CHEMBL1909046, “DrugMatrix in vitro pharmacology data”.

Legend:
Cytochrome P450 2D6 = Cytochrome P450 2D6 (Homo sapiens, UniProt P10635)
Cytochrome P450 1A2 = target: T1, Cytochrome P450 1A2 (Homo sapiens, UniProt P05177)
T1 sequence (P05177 whole entry): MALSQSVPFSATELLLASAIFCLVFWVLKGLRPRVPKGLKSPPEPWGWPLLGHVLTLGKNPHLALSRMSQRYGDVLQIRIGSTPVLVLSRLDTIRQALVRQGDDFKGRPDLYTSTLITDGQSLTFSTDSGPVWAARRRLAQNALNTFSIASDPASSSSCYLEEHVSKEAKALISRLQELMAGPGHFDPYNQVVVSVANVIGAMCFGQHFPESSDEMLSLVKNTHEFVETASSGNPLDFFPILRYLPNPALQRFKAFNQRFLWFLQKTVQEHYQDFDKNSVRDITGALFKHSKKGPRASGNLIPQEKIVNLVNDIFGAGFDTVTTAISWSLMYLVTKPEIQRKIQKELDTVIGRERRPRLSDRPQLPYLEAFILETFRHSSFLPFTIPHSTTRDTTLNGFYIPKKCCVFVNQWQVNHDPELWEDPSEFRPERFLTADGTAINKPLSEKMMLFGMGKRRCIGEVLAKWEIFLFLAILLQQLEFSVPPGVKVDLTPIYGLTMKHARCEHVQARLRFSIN

Chain of Cytochrome P450 2D6 (P10635 whole entry): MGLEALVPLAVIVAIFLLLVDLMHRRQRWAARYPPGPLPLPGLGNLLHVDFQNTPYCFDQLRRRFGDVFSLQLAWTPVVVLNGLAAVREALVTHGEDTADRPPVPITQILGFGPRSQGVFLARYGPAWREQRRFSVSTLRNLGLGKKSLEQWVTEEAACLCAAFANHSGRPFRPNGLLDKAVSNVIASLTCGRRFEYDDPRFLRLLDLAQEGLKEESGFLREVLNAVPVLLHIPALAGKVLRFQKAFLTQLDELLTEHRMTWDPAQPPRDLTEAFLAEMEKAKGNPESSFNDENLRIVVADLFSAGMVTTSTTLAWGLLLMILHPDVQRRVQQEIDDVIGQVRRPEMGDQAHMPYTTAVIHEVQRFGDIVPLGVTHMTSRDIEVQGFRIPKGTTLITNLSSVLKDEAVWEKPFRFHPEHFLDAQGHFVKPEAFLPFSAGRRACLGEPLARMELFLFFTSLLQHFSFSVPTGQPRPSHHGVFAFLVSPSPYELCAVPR

SMILES | IC50 (Cytochrome P450 2D6) [µM] | IC50 (Cytochrome P450 1A2) [µM]
Clc1ccc2c(c1)C(N1CCNCC1)=Nc1ccccc1O2 [AMOXAPINE] | 10 | 
CC(C)NCC(O)COc1cccc2ccccc12 (configuration not stated) [PROPRANOLOL] |  | 4
